Assay results reported in patent US20240246960A1 (adMare Therapeutics Society, priority 2021, published 2024).
Read-outs that look alike come from different tables or passages of the source.

Columns and labels:
FaDu cell line = experiment: Prodrug activation in hypoxic stirred tumour cell suspensions; format: in vitro ADME; details: 10 μM, 4 hours
Protocol: Prodrug compounds were assayed to determine their stability and rate of activation in stirred cell suspensions under 0.2 vs 5% oxygen. Compounds were diluted 1:1000 from DMSO stocks to 10 μM final concentration in tumour cell suspensions (1% by cell volume) in MEM media containing 10% FBS, 10 mM glucose & 3.7 g/L sodium bicarbonate. Cell lines assayed included A253, A549, Detroit562, FaDu, HCT116, HEP G2, HT29, SCC25, SCC9, SiHa & TC32. Compounds and cells were then incubated for 4 hours under constant mixing at 37° C. under 5% CO2 and either 0.2 or 5% O2. Following the incubation period cellular activation of the compounds was assayed via MeOH extraction and HPLC quantification.

[1] = tested on: pH2AX induction in HCT116 ATM−/− multicellular tumour spheroids; experiment: Prodrug radiation sensitization in multicellular tumour spheroids (pH2AX induction following radiation); format: cell-based
Protocol: Prodrug compounds were assayed to determine their potency in 3D multicellular spheroids in media maintained under 20% vs […]. Multicellular tumour spheroids were grown to approximately 0.5 mm in diameter and irradiated with 20 Gy in combination with inhibitor test compounds to determine their potency using HCT116 and FaDu cell lines. Experiments were carried out in 96 well plates containing 0.7 mls of MEM media containing 10% FBS and 10 mM glucose under […] at 37° C. Following dilution of compounds 1:1000 from DMSO stocks, compounds were serially diluted from 10 μM down to 3.5 nM and 5-10 spheroids added. 96 well plates were constantly stirred to avoid spheroids settling during the course of the experiment. Endpoints were pDNA-PK (ser 2056) or pH2AX (ser 139) status in spheroid cryosections taken 1 or 2 hours following radiation and fixed immediately in formalin. Using tumour cell lines deficient in ATM improved the assay signal to noise and gH2AX readout. Using this assay prodrug activity could be compared in the more oxygenated outer spheroid layers versus less oxygenated hypoxic central cell layers.

DNA-PK = biological target: T1, DNA-PK (Homo sapiens, UniProt P78527); experiment: DNA-PK Assay for Biochemical Enzymatic Inhibition (ADP Glo Kinase assay); details: Table 2
T1 construct: purchased Invitrogen PR9107A
Method in brief: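 Human DNA-PK (25 ng) preincubated 15 min with compounds (ten three-fold dilutions) in HEPES pH 7.5, MgCl2, KCl, calf thymus DNA buffer, then substrate 434.4 μM and ATP 64.4 μM (final) for 60 min at room temperature. ADP-Glo luminescence; percent inhibition fitted by four-parameter regression for IC50.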

[2] = biological target: T2, DNA-PK phosphorylation at Serine 2056 (Homo sapiens, UniProt P78527); experiment: Cellular Assay for Inhibition of DNA-PK Phosphorylation at Serine 2056 (FaDu cells, neocarzinostatin, sandwich ELISA); format: cell-based; details: Table 2
T2 construct: host or cells: FaDu
Method in brief: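 FaDu cells were pretreated with compound (0.3% DMSO) for 1 h, then exposed to neocarzinostatin at 1 μg/mL final for 2 h to induce DSBs. Protein-normalized lysates were assayed by MSD sandwich ELISA for total and pSer2056 DNA-PK. IC50 came from variable-slope fits of % inhibition relative to DMSO and NCS controls.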

[3] = Microsomal stability assay, human liver microsomes; format: in vitro ADME; details: for Microsomal Stability (human) % rem. 60 min: Example 11; for microsomal CLint at 0.1 uM: both sexes, human, liver microsomes, pH 7.4, Example 11
Protocol: Samples were then mixed and centrifuged. Supernatants were used for HPLC-MS/MS analysis. […] Peak areas corresponding to the test compound were recorded.

[4] = Microsomal stability assay, mouse liver microsomes; details: Example 11; for microsomal CLint at 0.1 uM: male, CD-1, mouse, liver microsomes, pH 7.4, Microsomal Stability Mouse Clint
[5] = Homo sapiens, HCT-116, 20 Gy, 5% O2, inner layers, read-out: Prodrug 5% O2 Inner layers EC50
[6] = Homo sapiens, HCT-116, 20 Gy, 5% O2, outer layers, read-out: Prodrug 5% O2 Outer layers EC50
[7] = Homo sapiens, HCT-116, 20 Gy, 20% O2, outer layers, read-out: Prodrug 20% O2 Outer layers EC50
[8] = 20 Gy, 5% O2, inner layers, read-out: Prodrug 5% O2 Inner layers EC50
[9] = 20 Gy, 5% O2, outer layers, read-out: Prodrug 5% O2 Outer layers EC50
[10] = 20 Gy, 20% O2, outer layers, read-out: Prodrug 20% O2 Outer layers EC50
[11] = value of the effector of the listed prodrug, 5% O2, inner layers, read-out: Effector 5% O2 Inner layers EC50

Row | SMILES | Fraction of prodrug converted to active form, Hypoxic 0.2% O2 (FaDu cell line) | Fraction of prodrug converted to active form, Oxic 5% O2 (FaDu cell line) | IC50 (DNA-PK) | IC50 [2] | Microsomal Stability (human) % rem. 60 min [3] | microsomal CLint at 0.1 uM [3] | Microsomal Stability (mouse) % rem. 60 min [4] | microsomal CLint at 0.1 uM [4] | EC50 [1, 5] | EC50 [1, 6] | EC50 [1, 7] | EC50 [1, 8] | EC50 [1, 9] | EC50 [1, 10] | EC50 [1, 11]
1 | Cn1c(CN(c2cnc3cc(N4CCOCC4)nc(OC4CCC(Nc5ncccn5)CC4)c3c2)S(C)(=O)=O)cnc1[N+](=O)[O-] (stereo not drawn) [LFA008, N-[(3-Methyl-2-nitro-imidazol-4-yl)methyl]-N-[7-morpholino-5-[4-(pyrimidin-2-ylamino)cyclohexoxy]-1,6-naphthyridin-3-yl]methanesulfonamide] | B (B is 0.05 to 0.15) | D (D is 0 to 0.02) | 10 to 150 nM |  |  |  |  |  | 10 to 500 nM | 500 to 1000 nM | 1000 to 10000 nM |  |  |  | 
2 | CC(c1cnc([N+](=O)[O-])n1C)N(c1cnc2cc(N3CCOCC3)nc(OC3CCC(Nc4ncccn4)CC3)c2c1)S(C)(=O)=O (stereo not drawn) [LFA010, N-[1-(3-Methyl-2-nitro-imidazol-4-yl)ethyl]-N-[7-morpholino-5-[4-(pyrimidin-2-ylamino)cyclohexoxy]-1,6-naphthyridin-3-yl]methanesulfonamide] | A (A is 0.15 to 1) | C (C is 0.02 to 0.05) | 10 to 150 nM | 1000 to 10000 nM | E (% remaining = 0-25%) | < 116 µL/min/mg | E (% remaining = 0-25%) | > 116 µL/min/mg | 10 to 500 nM | 10 to 500 nM | 1000 to 10000 nM |  |  |  | 
3 | Cn1c(CN(c2cnc3cc(N4CCOCC4)nc(OC4CCC(n5ccnc5)CC4)c3c2)S(C)(=O)=O)cnc1[N+](=O)[O-] (stereo not drawn) [LFA018, N-[5-(4-Imidazol-1-ylcyclohexoxy)-7-morpholino-1,6-naphthyridin-3-yl]-N-[(3-methyl-2-nitro-imidazol-4-yl)methyl]methanesulfonamide] | B (B is 0.05 to 0.15) | D (D is 0 to 0.02) | 10 to 150 nM | 10000 to 30000 nM |  |  |  |  | 1000 to 10000 nM | 1000 to 10000 nM | 1000 to 10000 nM |  |  |  | 
4 | Cn1c(CN(c2cnc3cc(N4CCOCC4)nc(OC4CCC(Nc5ncc(C(F)(F)F)cn5)CC4)c3c2)S(C)(=O)=O)cnc1[N+](=O)[O-] (stereo not drawn) [LFA023, N-[(3-Methyl-2-nitro-imidazol-4-yl)methyl]-N-[7-morpholino-5-[4-[[5-(trifluoromethyl)pyrimidin-2-yl]amino]cyclohexoxy]-1,6-naphthyridin-3-yl]methanesulfonamide] | B (B is 0.05 to 0.15) | D (D is 0 to 0.02) |  |  | F (% remaining = 25-50%) | < 116 µL/min/mg |  |  | 500 to 1000 nM | 1000 to 10000 nM | 1000 to 10000 nM |  |  |  | 
5 | CC(c1cnc([N+](=O)[O-])n1C)N(c1cnc2cc(N3CCOCC3)nc(OC3CCC(Nc4ncc(C(F)(F)F)cn4)CC3)c2c1)S(C)(=O)=O (stereo not drawn) [LFA024, N-[1-(3-Methyl-2-nitro-imidazol-4-yl)ethyl]-N-[7-morpholino-5-[4-[[5-(trifluoromethyl)pyrimidin-2-yl]amino]cyclohexoxy]-1,6-naphthyridin-3-yl]methanesulfonamide] | B (B is 0.05 to 0.15) | D (D is 0 to 0.02) |  |  | E (% remaining = 0-25%) | < 116 µL/min/mg | E (% remaining = 0-25%) | > 116 µL/min/mg | 10 to 500 nM | 1000 to 10000 nM | 10000 to 100000 nM |  |  |  | 
6 | Cn1c(CN(c2cnc3cc(N4CCOCC4)nc(OC4CCC(Nc5ncc(C#N)cn5)CC4)c3c2)S(C)(=O)=O)cnc1[N+](=O)[O-] (stereo not drawn) [LFA026, N-[5-[4-[(5-Cyanopyrimidin-2-yl)amino]cyclohexoxy]-7-morpholino-1,6-naphthyridin-3-yl]-N-[(3-methyl-2-nitro-imidazol-4-yl)methyl]methanesulfonamide] | B (B is 0.05 to 0.15) | D (D is 0 to 0.02) |  |  | E (% remaining = 0-25%) | > 116 µL/min/mg |  |  | 10 to 500 nM | 1000 to 10000 nM | 1000 to 10000 nM |  |  |  | 

Now from value to molecule, other results behind:

Row | Fraction of prodrug converted to active form, Hypoxic 0.2% O2 (FaDu cell line) | Fraction of prodrug converted to active form, Oxic 5% O2 (FaDu cell line) | IC50 (DNA-PK) | IC50 [2] | Microsomal Stability (human) % rem. 60 min [3] | microsomal CLint at 0.1 uM [3] | Microsomal Stability (mouse) % rem. 60 min [4] | microsomal CLint at 0.1 uM [4] | SMILES | EC50 [1, 5] | EC50 [1, 6] | EC50 [1, 7] | EC50 [1, 8] | EC50 [1, 9] | EC50 [1, 10] | EC50 [1, 11]
7 | B (B is 0.05 to 0.15) | C (C is 0.02 to 0.05) |  |  | E (% remaining = 0-25%) | > 116 µL/min/mg | E (% remaining = 0-25%) | > 116 µL/min/mg | CC(c1cnc([N+](=O)[O-])n1C)N(c1cnc2cc(N3CCOCC3)nc(OC3CCC(Nc4ncc(C#N)cn4)CC3)c2c1)S(C)(=O)=O (stereo not drawn) [LFA027, N-[5-[4-[(5-Cyanopyrimidin-2-yl)amino]cyclohexoxy]-7-morpholino-1,6-naphthyridin-3-yl]-N-[1-(3-methyl-2-nitro-imidazol-4-yl)ethyl]methanesulfonamide] | 10 to 500 nM | 500 to 1000 nM | 1000 to 10000 nM |  |  |  | 
8 | B (B is 0.05 to 0.15) | D (D is 0 to 0.02) |  |  |  |  |  |  | Cn1c(CN(c2cnc3cc(N4CCOCC4)nc(OC4CCC(Nc5ccn6nccc6n5)CC4)c3c2)S(C)(=O)=O)cnc1[N+](=O)[O-] (stereo not drawn) [LFA035, N-[(3-Methyl-2-nitro-imidazol-4-yl)methyl]-N-[7-morpholino-5-[4-(pyrazolo[1,5-a]pyrimidin-5-ylamino)cyclohexoxy]-1,6-naphthyridin-3-yl]methanesulfonamide] | 10 to 500 nM | 1000 to 10000 nM | 1000 to 10000 nM |  |  |  | 
9 | A (A is 0.15 to 1) | D (D is 0 to 0.02) |  |  |  |  |  |  | CC(c1cnc([N+](=O)[O-])n1C)N(c1cnc2cc(N3CCOCC3)nc(OC3CCC(Nc4ccn5nccc5n4)CC3)c2c1)S(C)(=O)=O (stereo not drawn) [LFA036, N-[1-(3-Methyl-2-nitro-imidazol-4-yl)ethyl]-N-[7-morpholino-5-[4-(pyrazolo[1,5-a]pyrimidin-5-ylamino)cyclohexoxy]-1,6-naphthyridin-3-yl]methanesulfonamide] | 10 to 500 nM | 500 to 1000 nM | 10000 to 100000 nM |  |  |  | 
10 | D (D is 0 to 0.02) | D (D is 0 to 0.02) |  |  |  |  |  |  | Cn1c(Cn2cnc(-c3cnc4cc(N5CCOCC5)nc(OC5CCC(Nc6ncccn6)CC5)c4c3)n2)cnc1[N+](=O)[O-] (stereo not drawn) [LFA138] |  |  |  | 1000 to 10000 nM | 1000 to 10000 nM | 1000 to 10000 nM | 10 to 500 nM
11 | B (B is 0.05 to 0.15) | D (D is 0 to 0.02) |  |  |  |  |  |  | Cn1c(Cn2ncnc2-c2cnc3cc(N4CCOCC4)nc(O[C@H]4CC[C@@H](Nc5ncccn5)CC4)c3c2)cnc1[N+](=O)[O-] [LFA139] |  |  |  | 500 to 1000 nM | 500 to 1000 nM | 1000 to 10000 nM | 10 to 500 nM
